# PubChem BioAssay AID330 (DTP/NCI, 2004)
# Toxic doses and inconclusive results are not listed. Peptide text beside a SMILES is read from it. * marks the point of attachment. X13 = CC(C)CC(NN)C(=O)*
# System: P388 leukemia ip, CD2F1 mice, survival T/C
# Assay: NCI In Vivo Anticancer Drug Screen. Data for tumor model P388 Leukemia (intraperitoneal) in CD2F1 (CDF1) mice
# Settings: endpoint: median survival time, higher = longer survival
# In short: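 Mice carrying the transplanted tumor received test compound or vehicle. Survival was recorded in each group, and the value is the treated-group measurement divided by that of the vehicle-treated control group.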
# [1] = dose: 50.0 mg/kg/injection, schedule: Q01DX005 (ip), vehicle: saline with Tween-80
# [2] = dose: 100.0 mg/kg/injection, schedule: Q01DX005 (ip), vehicle: saline with Tween-80
# [3] = dose: 120.0 mg/kg/injection, schedule: Q01DX005 (ip), vehicle: saline with Tween-80
# [4] = dose: 240.0 mg/kg/injection, schedule: Q01DX005 (ip), vehicle: saline with Tween-80
# [5] = dose: 200.0 mg/kg/injection, schedule: Q01DX005 (ip), vehicle: saline with Tween-80
# [6] = dose: 100.0 mg/kg/injection, schedule: Q01DX001 (ip), vehicle: Klucel (hydroxypropylcellulose) (HPC)
# [7] = dose: 200.0 mg/kg/injection, schedule: Q01DX001 (ip), vehicle: Klucel (hydroxypropylcellulose) (HPC)
# [8] = dose: 60.0 mg/kg/injection, schedule: Q01DX005 (ip), vehicle: Klucel (hydroxypropylcellulose) (HPC)
# [9] = dose: 120.0 mg/kg/injection, schedule: Q01DX005 (ip), vehicle: Klucel (hydroxypropylcellulose) (HPC)
# [10] = dose: 240.0 mg/kg/injection, schedule: Q01DX005 (ip), vehicle: Klucel (hydroxypropylcellulose) (HPC)
# [11] = dose: 60.0 mg/kg/injection, schedule: Q01DX005 (ip), vehicle: saline with Tween-80
structure (smiles),measurement,setting,value
CC(C)(C)c1cc2c3c(c1)C(C(F)(F)F)(C(F)(F)F)OS3(=O)(O)OC2(C(F)(F)F)C(F)(F)F,T/C,"dose: 25.0 mg/kg/injection, schedule: Q01DX005 (ip), vehicle: saline with Tween-80",100 % of control
same,T/C,[1],98 % of control
same,T/C,[2],103 % of control
COc1cccc2c1C(=O)c1c(O)c3c(c(O)c1C2=O)CC(O)(C(=O)CO)CC3OC1CC(NC(=O)C(F)(F)F)C(OC2CC(N)C(O)C(C)O2)C(C)O1 (stereo unspecified),T/C,"dose: 3.13 mg/kg/injection, schedule: Q04DX003 (ip), vehicle: water",109 % of control
same,T/C,"dose: 12.5 mg/kg/injection, schedule: Q04DX003 (ip), vehicle: water",119 % of control
same,T/C,"dose: 25.0 mg/kg/injection, schedule: Q04DX003 (ip), vehicle: water",113 % of control
same,T/C,"dose: 50.0 mg/kg/injection, schedule: Q04DX003 (ip), vehicle: water",117 % of control
Cc1cccc2c1/C(=C1/c3ccccc3C(=O)c3cccc(C)c31)c1ccccc1C2=O,T/C,"dose: 50.0 mg/kg/injection, schedule: Q01DX005 (ip), vehicle: Klucel + Tween-80",87 % of control
same,T/C,"dose: 100.0 mg/kg/injection, schedule: Q01DX005 (ip), vehicle: Klucel + Tween-80",90 % of control
Cc1cc(Br)c(NC(=S)SCc2ccc(Cl)cc2)cc1C,T/C,"dose: 50.0 mg/kg/injection, schedule: Q01DX009 (ip), vehicle: suspension in saline",101 % of control
same,T/C,"dose: 100.0 mg/kg/injection, schedule: Q01DX009 (ip), vehicle: suspension in saline",107 % of control
same,T/C,"dose: 200.0 mg/kg/injection, schedule: Q01DX009 (ip), vehicle: suspension in saline",98 % of control
CC(C)CC(NN)C(=O)NC(CCCN=C(N)N)C(=O)NC(CCCN=C(N)N)C(=O)NC(C)C(=O)NC(CO)C(=O)NC(C(=O)NC(C)C(=O)O)C(C)C (stereo unspecified) (X13-RRASVA-OH; configuration not given here),T/C,"dose: 4.5 mg/kg/injection, schedule: Q01DX009 (ip), vehicle: Klucel (hydroxypropylcellulose) (HPC)",101 % of control
same,T/C,"dose: 9.0 mg/kg/injection, schedule: Q01DX009 (ip), vehicle: Klucel (hydroxypropylcellulose) (HPC)",94 % of control
same,T/C,"dose: 18.0 mg/kg/injection, schedule: Q01DX009 (ip), vehicle: Klucel (hydroxypropylcellulose) (HPC)",98 % of control
same,T/C,"dose: 36.0 mg/kg/injection, schedule: Q01DX009 (ip), vehicle: Klucel (hydroxypropylcellulose) (HPC)",96 % of control
CCOC(=O)C1=C(N)N(S(=O)(=O)c2ccc(C)cc2)CCC(C(=O)OC)=C1,T/C,[3],119 % of control
same,T/C,[4],108 % of control
O=C1C(c2ccccc2)=C(c2ccccc2)/C1=C\c1ccc(Cl)cc1Cl,T/C,"dose: 50.0 mg/kg/injection, schedule: Q01DX009 (ip), vehicle: Klucel (hydroxypropylcellulose) (HPC)",87 % of control
same,T/C,"dose: 100.0 mg/kg/injection, schedule: Q01DX009 (ip), vehicle: Klucel (hydroxypropylcellulose) (HPC)",87 % of control
[N-]=[N+]=NCCN(Cc1ccccc1)Cc1ccccc1,T/C,[1],104 % of control
same,T/C,[2],104 % of control
same,T/C,[5],114 % of control
Cc1c(COC(=O)NC2CCCCC2)c(COC(=O)NC2CCCCC2)c2n1CCc1ccccc1-2,T/C,"dose: 12.5 mg/kg/injection, schedule: Q01DX009 (ip), vehicle: distilled water + Tween-80",178 % of control
same,T/C,"dose: 25.0 mg/kg/injection, schedule: Q01DX009 (ip), vehicle: distilled water + Tween-80",182 % of control
same,T/C,"dose: 50.0 mg/kg/injection, schedule: Q01DX009 (ip), vehicle: distilled water + Tween-80",101 % of control
CC(C)[CH2][Ge]([Cl])([Cl])[Cl],T/C,"dose: 0.78 mg/kg/injection, schedule: Q01DX009 (ip), vehicle: saline",103 % of control
same,T/C,"dose: 1.56 mg/kg/injection, schedule: Q01DX009 (ip), vehicle: saline",106 % of control
same,T/C,"dose: 3.12 mg/kg/injection, schedule: Q01DX009 (ip), vehicle: saline",94 % of control
same,T/C,"dose: 6.25 mg/kg/injection, schedule: Q01DX009 (ip), vehicle: saline",119 % of control
COc1cccc2c1C(=O)c1c(O)c3c(c(O)c1C2=O)C[C@@](O)(C(C)O)C[C@@H]3OC1CC(N2CCOCC2C#N)C(O)C(C)O1 (stereo partly specified),T/C,"dose: 0.03 mg/kg/injection, schedule: Q04DX003 (ip), vehicle: water",120 % of control
same,T/C,"dose: 0.1 mg/kg/injection, schedule: Q04DX003 (ip), vehicle: water",166 % of control
same,T/C,"dose: 12.5 micrograms/kg/injection, schedule: Q04DX003 (ip), vehicle: water",107 % of control
same,T/C,"dose: 25.0 micrograms/kg/injection, schedule: Q04DX003 (ip), vehicle: water",101 % of control
same,T/C,"dose: 50.0 micrograms/kg/injection, schedule: Q04DX003 (ip), vehicle: water",106 % of control
same,T/C,"dose: 100.0 micrograms/kg/injection, schedule: Q04DX003 (ip), vehicle: water",120 % of control
CSC(=S)n1nc(C)c(N=Nc2ccccc2[N+](=O)[O-])c1C,T/C,[6],111 % of control
same,T/C,[7],96 % of control
same,T/C,"dose: 400.0 mg/kg/injection, schedule: Q01DX001 (ip), vehicle: Klucel (hydroxypropylcellulose) (HPC)",106 % of control
COC(=O)/C1=C/N(C=O)CCCC2OC12C(=O)OC (stereo unspecified),T/C,[6],100 % of control
same,T/C,[7],100 % of control
O=S(=O)(C1=C[C@H](O)C[C@@H]1O)c1ccccc1,T/C,[8],98 % of control
same,T/C,[9],107 % of control
same,T/C,[10],100 % of control
Clc1ccc(/C=N\N=C\c2ccc(Cl)c(Cl)c2)cc1Cl,T/C,"dose: 25.0 mg/kg/injection, schedule: Q01DX009 (ip), vehicle: saline with Tween-80",95 % of control
same,T/C,"dose: 50.0 mg/kg/injection, schedule: Q01DX009 (ip), vehicle: saline with Tween-80",100 % of control
same,T/C,"dose: 100.0 mg/kg/injection, schedule: Q01DX009 (ip), vehicle: saline with Tween-80",110 % of control
same,T/C,"dose: 200.0 mg/kg/injection, schedule: Q01DX009 (ip), vehicle: saline with Tween-80",90 % of control
same,T/C,"dose: 400.0 mg/kg/injection, schedule: Q01DX009 (ip), vehicle: saline with Tween-80",90 % of control
O=S1(=O)C=C(c2ccccc2)S(=O)(=O)C=C1c1ccccc1,T/C,"dose: 100.0 mg/kg/injection, schedule: Q04DX003 (ip), vehicle: saline with Tween-80",102 % of control
same,T/C,"dose: 200.0 mg/kg/injection, schedule: Q04DX003 (ip), vehicle: saline with Tween-80",96 % of control
CC(=O)Nc1ccc(S(=O)(=O)N/N=C/c2cccc([N+](=O)[O-])c2O)cc1,T/C,[11],104 % of control
same,T/C,[3],104 % of control
same,T/C,[4],103 % of control
Cc1ccc(-n2c(-c3ccc(-n4c(C)nc5ccc(Br)cc5c4=O)cc3)n[nH]c2=S)cc1,T/C,"dose: 100.0 mg/kg/injection, schedule: Q04DX002 (ip), vehicle: Klucel (hydroxypropylcellulose) (HPC)",98 % of control
same,T/C,"dose: 200.0 mg/kg/injection, schedule: Q04DX002 (ip), vehicle: Klucel (hydroxypropylcellulose) (HPC)",106 % of control
same,T/C,"dose: 400.0 mg/kg/injection, schedule: Q04DX002 (ip), vehicle: Klucel (hydroxypropylcellulose) (HPC)",100 % of control
COC(=O)C1=C(\OC)c2c(ccc(OC)c2OC)C(=O)N2CCc3cc4c(cc3\C2=C\1C(=O)OC)OCO4,T/C,"dose: 50.0 mg/kg/injection, schedule: Q04DX002 (ip), vehicle: saline with Tween-80",103 % of control
same,T/C,"dose: 100.0 mg/kg/injection, schedule: Q04DX002 (ip), vehicle: saline with Tween-80",105 % of control
same,T/C,"dose: 200.0 mg/kg/injection, schedule: Q04DX002 (ip), vehicle: saline with Tween-80",94 % of control
Nc1nnc(CCC(=O)Nc2ccccc2Cl)o1,T/C,[11],98 % of control
same,T/C,[3],101 % of control
same,T/C,[4],97 % of control
O=c1[nH]cnc(O)c1C1C=CC=CC=C1,T/C,"dose: 50.0 mg/kg/injection, schedule: Q01DX005 (ip), vehicle: Klucel (hydroxypropylcellulose) (HPC)",105 % of control
same,T/C,"dose: 100.0 mg/kg/injection, schedule: Q01DX005 (ip), vehicle: Klucel (hydroxypropylcellulose) (HPC)",114 % of control
Cc1nc(C(=O)c2ccccc2)cnc1-c1ccccc1,T/C,[8],92 % of control
same,T/C,[9],88 % of control
same,T/C,[10],91 % of control
CCN(CC)c1c(C)c(-c2ccccc2)oc(=O)c1Cl,T/C,[1],100 % of control
same,T/C,[2],100 % of control
same,T/C,[5],115 % of control
